We go through one compound from US20070072917A1, “Substituted 2-aminotetralin for the treatment of depression” (SRZ Properties, Inc., priority 2003, published 2007).

Entries after “also recorded” stand apart in the source; their conditions may differ.

In assay [1] the test system is rats. Put plainly: learned helplessness test. The class given is in vivo. The following applies: several days of administration, low concentrations / depending on the dose, vs vehicle control (HC). The method, then:
In the “learned helplessness test”, rats are repeatedly subjected to uncontrollable stress. This brings about an impaired learning ability in the animals in a later situation (for example after 48 hours) in which they could escape the stress again. Following the sub-chronic but not acute administration of antidepressants, the learning ability normalises again and the animals learn to escape the (announced) stress (in time) (Sherman, Pharmacology Biochemistry & Behavior 16, 1982, 449).

The subject of a further assay is bulbectomised rats. Put plainly: bulbectomy study (olfactory bulbs removed on both sides). The assay is classed as in vivo, Sprague-Dawley rats. To be noted: low doses, 3 minutes on test field. On the procedure: In a further animal model (embodiment 3), it was examined whether the antidepressive effects of rotigotine can be distinguished from a general motor stimulation. In this case, rotigotine was administered to rats whose olfactory bulbs had been removed on both sides. The removal of the olfactory bulb leads to an adaptive hyperactivity in the untreated control group. It is known from literature that chronically administered antidepressants lead to a reduction in the movement activity of the animals in this model, whereas stimulants further increase the motor activity (van Riezen H et al, Br J. Pharmacol. 60(4), 1977, 521; Kelly J P et al, Pharmacol Ther. 74(3), 1997, 299). Therefore, it is possible to discriminate between antidepressive and non-specific stimulatory effects of an active ingredient with this model. […] The bulbectomy study was carried out on Sprague-Dawley rats. A sham-operated group, which was operated on without removal of the olfactory bulbs, served as a control group. 14 days after the operation, the rats were treated with vehicle, a rotigotine depot suspension (every second day) or imipramine. On test days, the rats were placed onto a test field and left to themselves for 3 minutes. The locomotor activities of the animals were thereby measured on the basis of the number of lines crossed.

Assay [2] relates to rats. Description: forced swim test. To be noted: repeated swim test, subcutaneously applied. The assay is classed as in vivo. The text has this:
The “forced swim test” is an animal model in which depressive episodes are triggered by acute stress. In this test, rats are forced to swim in a limited space. After initial attempts to save themselves, in which the animals realise the hopelessness of the situation, they lapse into immobility. On repetition of the experiment, the animals remain immobile from the start of the experiment. If the animals are pre-treated with antidepressants, the period of immobility in the repeated test is shortened and the animals generally commence search and escape movements immediately after transfer into the water basin (Porsolt, Biomedicine 30, 1979, 139).

Turning to `CCCN(CCc1cccs1)C1CCc2c(O)cccc2C1` (single isomer, unassigned; (-)) [rotigotine, (−)-5,6,7,8-tetrahydro-6-[propyl[2-(2-thienyl)ethyl]amino]-1-naphthol], the learning behaviour result in the assay with rats [1] is “significant antidepressive effect”. Moreover, the “bulbectomy-induced locomotor hyperactivity (number of lines crossed)” value in the assay with bulbectomised rats is listed as “almost complete suppression of the bulbectomy-induced locomotor hyperactivity; also recorded: significant antidepressive effect; also recorded: significantly reduce motor hyperactivity”. The values for the period of immobility entry in the assay with rats [2] and in the assay with rats [2] (listed as Rotigotine) were “significant antidepressive effect; also recorded: clear reduction in the period of immobility” and “significantly shortened period of immobility”, respectively.
